Measured values as given in ChEMBL document CHEMBL5724914, “Linking interpersonal differences in gut microbiota composition and drug biotransformation activity” (2024).

Columns and labels:
[1] = (§1) The drug is tested on Z-026 corresponding to metagenome with ENA study accession number: PRJEB37062 and ENA sample accession number: ERS12561825 for biotransformation under anaerobic condition. The drug concentrations were measured over 9 timepoints collected between 0 and 24 hours of incubation by liquid-chromatography-coupled mass spectrometry (LC–MS); conditions: 2 µM
[2] = (§2) The drug is tested on Z-024 corresponding to pig gut metagenome with ENA study accession number: PRJEB37062 and ENA sample accession number: ERS12561823 for biotransformation under anaerobic condition. The drug concentrations were measured over 9 timepoints collected between 0 and 24 hours of incubation by liquid-chromatography-coupled mass spectrometry (LC–MS); conditions: 2 µM
[3] = as §2, with “Z-020” for “Z-024”, “rabbit” for “pig”, “ERS12561819” for “ERS12561823”; conditions: 2 µM
[4] = as §1, with “Z-005” for “Z-026”, “ERS12561805” for “ERS12561825”; conditions: 2 µM
[5] = as §2, with “Z-002” for “Z-024”, “rabbit” for “pig”, “ERS12561802” for “ERS12561823”; conditions: 2 µM
[6] = as §2, with “WLS-350” for “Z-024”, “human” for “pig”, “ERS12561789” for “ERS12561823”; conditions: 2 µM
[7] = as §2, with “WLS-090” for “Z-024”, “human” for “pig”, “ERS12561753” for “ERS12561823”; conditions: 2 µM
[8] = as §2, with “WLS-052” for “Z-024”, “human” for “pig”, “ERS12561747” for “ERS12561823”; conditions: 2 µM
[9] = as §2, with “WLS-039” for “Z-024”, “human” for “pig”, “ERS12561746” for “ERS12561823”; conditions: 2 µM
[10] = human gut metagenome, 24 h, 2 µM
[11] = human gut metagenome, 24 h, 2 µM; remark: listed apart in the source
[12] = human gut metagenome, 24 h, 2 µM; remark: listed apart in the source
[13] = human gut metagenome, 24 h, 2 µM; remark: listed apart in the source
[14] = human gut metagenome, 24 h, 2 µM; remark: listed apart in the source
[15] = human gut metagenome, 24 h, 2 µM; remark: listed apart in the source
[16] = human gut metagenome, 24 h, 2 µM; remark: listed apart in the source
[17] = human gut metagenome, 24 h, 2 µM; remark: listed apart in the source
[18] = human gut metagenome, 24 h, 2 µM; remark: listed apart in the source
[19] = human gut metagenome, 24 h, 2 µM; remark: listed apart in the source
[20] = human gut metagenome, 24 h, 2 µM; remark: listed apart in the source

Measured: Bacterial Biotransformation
Also: call rule not given here.

CC(=O)Nc1ccc(OC(C)=O)cc1 [DIACETAMATE]
Compound metabolized: all assays above

CN(C)C(=O)Oc1cccc([N+](C)(C)C)c1.[Br-] [NEOSTIGMINE BROMIDE]
Compound metabolized: [5]
Compound NOT metabolized: all other assays above

CCOc1cc(CC(=O)N[C@@H](CC(C)C)c2ccccc2N2CCCCC2)ccc1C(=O)O [REPAGLINIDE]
Compound NOT metabolized: [1] | [19] | [20]
Compound metabolized: all other assays above

COC(=O)[C@H](c1ccccc1Cl)N1CCc2sccc2C1.O=S(=O)(O)O [CLOPIDOGREL BISULFATE]
Compound NOT metabolized: [9]
Compound metabolized: all other assays above

COc1ccc(Cc2nccc3cc(OC)c(OC)cc23)cc1OC [PAPAVERINE]
Compound NOT metabolized: [1] | [3] | [15] | [18] | [19] | [20]
Compound metabolized: all other assays above

CCN(C(C)=O)c1cccc(-c2ccnc3c(C#N)cnn23)c1 [ZALEPLON]
Compound NOT metabolized: [1] | [2] | [4] | [10] | [15] | [20]
Compound metabolized: all other assays above

CC(C)(C)NCC(O)c1cc(Cl)c(N)c(Cl)c1 (stereo not given) [CLENBUTEROL]
Compound NOT metabolized: all assays above

CCc1oc2ccccc2c1C(=O)c1cc(Br)c(O)c(Br)c1 [BENZBROMARONE]
Compound NOT metabolized: [1] | [2] | [6] | [13] | [15] | [18] | [19] | [20]
Compound metabolized: all other assays above

Cc1ccccc1C(OCCN(C)C)c1ccccc1.O=C(O)CC(O)(CC(=O)O)C(=O)O (stereo not given) [ORPHENADRINE CITRATE]
Compound metabolized: [2] | [3] | [5] | [9] | [12] | [13] | [16]
Compound NOT metabolized: all other assays above
